± gives the expanded uncertainty stated by the source.
Assay: xn = mol fraction of the nth substance listed
Conditions: Liquid, Vibrating tube method

Q: Which mass density (313.09 K, 11000 kPa, x2 = 0.0937) does the source give for `CCCCCCCCCC` [decane] + CCO here?
A: 723.62 ± 0.34 kg/m3

Q: And the mass density (313.09 K, 12000 kPa, x2 = 0.0937)?
A: 724.43 ± 0.36 kg/m3

Q: And the mass density (313.09 K, 13000 kPa, x2 = 0.0937)?
A: 725.25 ± 0.37 kg/m3

Q: What about the mass density (313.09 K, 14000 kPa, x2 = 0.0937) of the same compound?
A: 726.06 ± 0.38 kg/m3

Q: What about the mass density (313.09 K, 15000 kPa, x2 = 0.0937) of the same compound?
A: 726.84 ± 0.4 kg/m3

Q: What about the mass density (313.09 K, 16000 kPa, x2 = 0.0937) of the same compound?
A: 727.61 ± 0.41 kg/m3

Q: And the mass density (313.09 K, 17000 kPa, x2 = 0.0937)?
A: 728.37 ± 0.42 kg/m3

Q: What about the mass density (313.09 K, 18000 kPa, x2 = 0.0937) of the same compound?
A: 729.11 ± 0.43 kg/m3

Q: And the mass density (313.09 K, 19000 kPa, x2 = 0.0937)?
A: 729.84 ± 0.45 kg/m3

Q: What about the mass density (313.09 K, 20000 kPa, x2 = 0.0937) of the same compound?
A: 730.54 ± 0.46 kg/m3

Q: And the mass density (313.11 K, 1000 kPa, x2 = 0.2507)?
A: 717.71 ± 0.21 kg/m3

Q: What about the mass density (313.11 K, 2000 kPa, x2 = 0.2507) of the same compound?
A: 718.61 ± 0.23 kg/m3

Q: And the mass density (313.11 K, 3000 kPa, x2 = 0.2507)?
A: 719.5 ± 0.24 kg/m3

Q: And the mass density (313.11 K, 4000 kPa, x2 = 0.2507)?
A: 720.38 ± 0.25 kg/m3

Q: What about the mass density (313.11 K, 5000 kPa, x2 = 0.2507) of the same compound?
A: 721.25 ± 0.26 kg/m3

Q: What about the mass density (313.11 K, 6000 kPa, x2 = 0.2507) of the same compound?
A: 722.07 ± 0.28 kg/m3

Q: And the mass density (313.11 K, 7000 kPa, x2 = 0.2507)?
A: 722.9 ± 0.29 kg/m3

Q: And the mass density (313.11 K, 8000 kPa, x2 = 0.2507)?
A: 723.74 ± 0.3 kg/m3

Q: And the mass density (313.11 K, 9000 kPa, x2 = 0.2507)?
A: 724.57 ± 0.32 kg/m3

Q: And the mass density (313.11 K, 10000 kPa, x2 = 0.2507)?
A: 725.41 ± 0.33 kg/m3

Q: And the mass density (313.11 K, 11000 kPa, x2 = 0.2507)?
A: 726.25 ± 0.34 kg/m3

Q: What about the mass density (313.11 K, 12000 kPa, x2 = 0.2507) of the same compound?
A: 727.08 ± 0.35 kg/m3

Q: What about the mass density (313.11 K, 13000 kPa, x2 = 0.2507) of the same compound?
A: 727.91 ± 0.37 kg/m3

Q: What about the mass density (313.11 K, 14000 kPa, x2 = 0.2507) of the same compound?
A: 728.72 ± 0.38 kg/m3

Q: And the mass density (313.11 K, 15000 kPa, x2 = 0.2507)?
A: 729.52 ± 0.39 kg/m3

Q: What about the mass density (313.11 K, 16000 kPa, x2 = 0.2507) of the same compound?
A: 730.3 ± 0.4 kg/m3

Q: What about the mass density (313.11 K, 17000 kPa, x2 = 0.2507) of the same compound?
A: 731.07 ± 0.42 kg/m3

Q: What about the mass density (313.11 K, 18000 kPa, x2 = 0.2507) of the same compound?
A: 731.81 ± 0.43 kg/m3

Q: What about the mass density (313.11 K, 19000 kPa, x2 = 0.2507) of the same compound?
A: 732.55 ± 0.44 kg/m3

Q: And the mass density (313.11 K, 20000 kPa, x2 = 0.2507)?
A: 733.26 ± 0.45 kg/m3

Q: And the mass density (322.98 K, 1000 kPa, x2 = 0.4963)?
A: 715.95 ± 0.21 kg/m3

Q: What about the mass density (322.98 K, 2000 kPa, x2 = 0.4963) of the same compound?
A: 716.92 ± 0.23 kg/m3

Q: What about the mass density (322.98 K, 3000 kPa, x2 = 0.4963) of the same compound?
A: 717.88 ± 0.24 kg/m3

Q: What about the mass density (322.98 K, 4000 kPa, x2 = 0.4963) of the same compound?
A: 718.83 ± 0.25 kg/m3

Q: And the mass density (322.98 K, 5000 kPa, x2 = 0.4963)?
A: 719.75 ± 0.26 kg/m3

Q: And the mass density (322.98 K, 6000 kPa, x2 = 0.4963)?
A: 720.66 ± 0.28 kg/m3

Q: And the mass density (322.98 K, 7000 kPa, x2 = 0.4963)?
A: 721.56 ± 0.29 kg/m3

Q: What about the mass density (322.98 K, 8000 kPa, x2 = 0.4963) of the same compound?
A: 722.48 ± 0.3 kg/m3

Q: And the mass density (322.98 K, 9000 kPa, x2 = 0.4963)?
A: 723.39 ± 0.32 kg/m3

Q: And the mass density (322.98 K, 10000 kPa, x2 = 0.4963)?
A: 724.3 ± 0.33 kg/m3

Q: And the mass density (322.98 K, 11000 kPa, x2 = 0.4963)?
A: 725.2 ± 0.34 kg/m3

Q: And the mass density (322.98 K, 12000 kPa, x2 = 0.4963)?
A: 726.08 ± 0.35 kg/m3

Q: What about the mass density (322.98 K, 13000 kPa, x2 = 0.4963) of the same compound?
A: 726.98 ± 0.37 kg/m3

Q: What about the mass density (322.98 K, 14000 kPa, x2 = 0.4963) of the same compound?
A: 727.85 ± 0.38 kg/m3

Q: And the mass density (322.98 K, 15000 kPa, x2 = 0.4963)?
A: 728.71 ± 0.39 kg/m3

Q: And the mass density (322.98 K, 16000 kPa, x2 = 0.4963)?
A: 729.56 ± 0.4 kg/m3

Q: And the mass density (322.98 K, 17000 kPa, x2 = 0.4963)?
A: 730.39 ± 0.42 kg/m3

Q: What about the mass density (322.98 K, 18000 kPa, x2 = 0.4963) of the same compound?
A: 731.19 ± 0.43 kg/m3

Q: What about the mass density (322.98 K, 19000 kPa, x2 = 0.4963) of the same compound?
A: 731.99 ± 0.44 kg/m3

Q: What about the mass density (322.98 K, 20000 kPa, x2 = 0.4963) of the same compound?
A: 732.78 ± 0.45 kg/m3

Q: And the mass density (322.99 K, 1000 kPa, x2 = 0.0937)?
A: 707.2 ± 0.22 kg/m3

Q: What about the mass density (322.99 K, 1000 kPa, x2 = 0.9014) of the same compound?
A: 745.03 ± 0.2 kg/m3

Q: What about the mass density (322.99 K, 2000 kPa, x2 = 0.0937) of the same compound?
A: 708.15 ± 0.23 kg/m3

Q: What about the mass density (322.99 K, 2000 kPa, x2 = 0.9014) of the same compound?
A: 746.04 ± 0.21 kg/m3

Q: What about the mass density (322.99 K, 3000 kPa, x2 = 0.0937) of the same compound?
A: 709.09 ± 0.24 kg/m3

Q: What about the mass density (322.99 K, 3000 kPa, x2 = 0.9014) of the same compound?
A: 747.05 ± 0.22 kg/m3

Q: What about the mass density (322.99 K, 4000 kPa, x2 = 0.0937) of the same compound?
A: 710.01 ± 0.26 kg/m3

Q: What about the mass density (322.99 K, 4000 kPa, x2 = 0.9014) of the same compound?
A: 748.04 ± 0.23 kg/m3

Q: What about the mass density (322.99 K, 5000 kPa, x2 = 0.0937) of the same compound?
A: 710.92 ± 0.27 kg/m3

Q: What about the mass density (322.99 K, 5000 kPa, x2 = 0.9014) of the same compound?
A: 749.01 ± 0.24 kg/m3

Q: What about the mass density (322.99 K, 6000 kPa, x2 = 0.0937) of the same compound?
A: 711.82 ± 0.29 kg/m3

Q: And the mass density (322.99 K, 6000 kPa, x2 = 0.9014)?
A: 749.97 ± 0.25 kg/m3

Q: And the mass density (322.99 K, 7000 kPa, x2 = 0.0937)?
A: 712.7 ± 0.3 kg/m3

Q: And the mass density (322.99 K, 7000 kPa, x2 = 0.9014)?
A: 750.92 ± 0.26 kg/m3

Q: What about the mass density (322.99 K, 8000 kPa, x2 = 0.0937) of the same compound?
A: 713.57 ± 0.31 kg/m3

Q: And the mass density (322.99 K, 8000 kPa, x2 = 0.9014)?
A: 751.88 ± 0.28 kg/m3

Q: What about the mass density (322.99 K, 9000 kPa, x2 = 0.0937) of the same compound?
A: 714.44 ± 0.33 kg/m3

Q: What about the mass density (322.99 K, 9000 kPa, x2 = 0.9014) of the same compound?
A: 752.84 ± 0.29 kg/m3

Q: What about the mass density (322.99 K, 10000 kPa, x2 = 0.0937) of the same compound?
A: 715.32 ± 0.34 kg/m3

Q: And the mass density (322.99 K, 10000 kPa, x2 = 0.9014)?
A: 753.79 ± 0.3 kg/m3

Q: What about the mass density (322.99 K, 11000 kPa, x2 = 0.0937) of the same compound?
A: 716.18 ± 0.35 kg/m3

Q: And the mass density (322.99 K, 11000 kPa, x2 = 0.9014)?
A: 754.74 ± 0.31 kg/m3

Q: And the mass density (322.99 K, 12000 kPa, x2 = 0.0937)?
A: 717.04 ± 0.37 kg/m3

Q: And the mass density (322.99 K, 12000 kPa, x2 = 0.9014)?
A: 755.67 ± 0.32 kg/m3

Q: And the mass density (322.99 K, 13000 kPa, x2 = 0.0937)?
A: 717.9 ± 0.38 kg/m3

Q: What about the mass density (322.99 K, 13000 kPa, x2 = 0.9014) of the same compound?
A: 756.6 ± 0.33 kg/m3

Q: What about the mass density (322.99 K, 14000 kPa, x2 = 0.0937) of the same compound?
A: 718.73 ± 0.39 kg/m3

Q: And the mass density (322.99 K, 14000 kPa, x2 = 0.9014)?
A: 757.52 ± 0.34 kg/m3

Q: What about the mass density (322.99 K, 15000 kPa, x2 = 0.0937) of the same compound?
A: 719.56 ± 0.4 kg/m3

Q: And the mass density (322.99 K, 15000 kPa, x2 = 0.9014)?
A: 758.41 ± 0.35 kg/m3

Q: What about the mass density (322.99 K, 16000 kPa, x2 = 0.0937) of the same compound?
A: 720.37 ± 0.42 kg/m3

Q: And the mass density (322.99 K, 16000 kPa, x2 = 0.9014)?
A: 759.31 ± 0.36 kg/m3

Q: What about the mass density (322.99 K, 17000 kPa, x2 = 0.0937) of the same compound?
A: 721.18 ± 0.43 kg/m3

Q: What about the mass density (322.99 K, 17000 kPa, x2 = 0.9014) of the same compound?
A: 760.18 ± 0.37 kg/m3

Q: And the mass density (322.99 K, 18000 kPa, x2 = 0.0937)?
A: 721.95 ± 0.44 kg/m3

Q: And the mass density (322.99 K, 18000 kPa, x2 = 0.9014)?
A: 761.04 ± 0.38 kg/m3

Q: And the mass density (322.99 K, 19000 kPa, x2 = 0.0937)?
A: 722.72 ± 0.46 kg/m3

Q: And the mass density (322.99 K, 19000 kPa, x2 = 0.9014)?
A: 761.88 ± 0.4 kg/m3

Q: And the mass density (322.99 K, 20000 kPa, x2 = 0.0937)?
A: 723.46 ± 0.47 kg/m3

Q: And the mass density (322.99 K, 20000 kPa, x2 = 0.9014)?
A: 762.71 ± 0.41 kg/m3

— the NIST ThermoML archive (doi:10.1016/j.jct.2012.06.012)
